{"source": "patent US8101766B2", "about": "“Crystalline form of a biphenyl compound” (Theravance, Inc., priority 2004, dated 2012)", "key": {"[1]": {"target": "T1, human M2 muscarinic receptor (Homo sapiens, UniProt P08172)", "T1 construct": "expressed in transfected cells", "T1 sequence (P08172 1-466)": "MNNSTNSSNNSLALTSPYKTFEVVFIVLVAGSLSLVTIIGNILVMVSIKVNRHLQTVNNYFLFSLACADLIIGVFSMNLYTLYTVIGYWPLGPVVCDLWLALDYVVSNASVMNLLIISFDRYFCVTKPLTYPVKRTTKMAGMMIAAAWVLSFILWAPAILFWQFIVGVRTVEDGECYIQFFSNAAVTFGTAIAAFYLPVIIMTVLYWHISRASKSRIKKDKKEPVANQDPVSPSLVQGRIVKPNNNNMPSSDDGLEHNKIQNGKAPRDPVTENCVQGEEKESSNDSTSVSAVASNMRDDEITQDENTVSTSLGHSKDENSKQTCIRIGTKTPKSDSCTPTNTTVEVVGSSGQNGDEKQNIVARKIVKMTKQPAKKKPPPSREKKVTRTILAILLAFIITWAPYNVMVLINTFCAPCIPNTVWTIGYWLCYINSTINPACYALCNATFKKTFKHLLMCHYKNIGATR", "experiment": "Radioligand binding assay for muscarinic receptors (hM2)", "conditions": "[3H]-NMS displacement, CHO cell membranes", "method": "The cells were grown in a 5% CO2, 37° C. incubator and lifted with 2 mM EDTA in dPBS. Cells were collected by 5 minute centrifugation at 650×g, and cell pellets were either stored frozen at −80° C. or membranes were prepared immediately for use. For membrane preparation, cell pellets were resuspended in lysis buffer and homogenized with a Polytron PT-2100 tissue disrupter (Kinematica AG; 20 seconds×2 bursts). Crude membranes were centrifuged at 40,000×g for 15 minutes at 4° C. The membrane pellet was then resuspended with re-suspension buffer and homogenized again with the Polytron tissue disrupter. […] All membranes were stored frozen in aliquots at −80° C. or used immediately.\nThe membranes were briefly homogenized using a Polytron tissue disruptor (10 seconds) prior to assay plate addition. […] Filter plates were rinsed three times with wash buffer (10 mM HEPES) to remove unbound radioactivity. […] Binding data were analyzed by nonlinear regression analysis with the GraphPad Prism Software package (GraphPad Software, Inc., San Diego, Calif.) using the one-site competition model."}, "[2]": {"tested_on": "acetylcholine-induced or histamine-induced bronchoconstriction", "experiment": "Duration of bronchoprotection in guinea pig models of acetylcholine-induced or histamine-induced bronchoconstriction (model not specified for the result)", "type": "in vivo", "conditions": "inhalation", "method": "Duration of Bronchoprotection in Guinea Pig Models of Acetylcholine-Induced or Histamine-Induced Bronchoconstriction\nTo isolate muscarinic antagonist activity in the acetylcholine-induced bronchoconstriction model, the animals were administered propanolol, a compound that blocks β receptor activity, prior to the administration of acetylcholine. Duration of bronchoprotection in the histamine-induced bronchoconstriction model reflects β2 adrenergic receptor agonist activity.\nGroups of 6 male guinea pigs (Duncan-Hartley (HsdPoc:DH) Harlan, Madison, Wis.) weighing between 250 and 350 g were individually identified by cage cards. Throughout the study, animals were allowed access to food and water ad libitum.\nTest compounds were administered via inhalation over 10 minutes in a whole-body exposure dosing chamber (R&S Molds, San Carlos, Calif.). […] This value was measured gravimetrically by comparing pre- and post-nebulization weights of the filled nebulizer.\nThe bronchoprotective effects of test compounds administered via inhalation were evaluated using whole body plethysmography at 1.5, 24, 48 and 72 hours post-dose. […]\nOnce it was determined that baseline values were within the range of 0.3-0.9 mL/cm H2O for compliance and within the range of 0.1-0.199 cm H2O/mL per second for resistance, the pulmonary evaluation was initiated. […]"}, "β2 adrenergic receptor": {"target": "β2 adrenergic receptor (Homo sapiens, UniProt P07550)", "sequence (P07550 whole entry)": "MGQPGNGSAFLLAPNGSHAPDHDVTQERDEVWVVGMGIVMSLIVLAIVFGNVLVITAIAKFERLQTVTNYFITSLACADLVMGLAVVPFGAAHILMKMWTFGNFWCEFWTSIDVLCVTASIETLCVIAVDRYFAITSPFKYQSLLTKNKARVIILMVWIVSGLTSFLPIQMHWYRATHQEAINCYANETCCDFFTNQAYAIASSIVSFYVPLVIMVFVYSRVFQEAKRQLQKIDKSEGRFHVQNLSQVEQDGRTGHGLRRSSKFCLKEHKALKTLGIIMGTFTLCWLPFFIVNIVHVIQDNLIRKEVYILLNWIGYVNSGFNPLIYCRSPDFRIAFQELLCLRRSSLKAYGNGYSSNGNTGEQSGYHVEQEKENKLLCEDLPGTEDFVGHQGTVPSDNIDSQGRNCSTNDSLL", "experiment": "Whole-cell cAMP Flashplate assay with lung epithelial cell line (BEAS-2B) endogenously expressing human β2 adrenergic receptor", "type": "cell-based", "set-up": "a cell line expressing endogenous levels of the β2 adrenergic receptor, a human lung epithelial cell line (BEAS-2B) was used; host or cells: BEAS-2B human lung epithelial cells", "conditions": "BEAS-2B human lung epithelial cell line, endogenous receptor", "method": "On the day of the assay, cells were rinsed with PBS, lifted by scraping with 5 mM EDTA in PBS, and counted. Cells were pelleted by centrifugation at 1,000 rpm and re-suspended in stimulation buffer pre-warmed to 37° C. at a final concentration of 600,000 cells/mL. Cells were used at a final concentration of 100,000 to 120,000 cells/well in this assay. […] Test compounds were tested in the assay at 11 different concentrations, ranging from 10 μM to 10 pM. Reactions were incubated for 10 min at 37° C. and stopped by addition of 100 μL of ice-cold detection buffer. Plates were sealed, incubated over night at 4° C. and counted the next morning in a Topcount scintillation counter (Packard BioScience Co., Meriden, Conn.). […] Data were analyzed by nonlinear regression analysis with the GraphPad Prism Software package (GraphPad Software, Inc., San Diego, Calif.) using the 4-parameter model for sigmoidal dose-response."}}, "note": "pEC50, pKi: −log10 of the molar value.", "data": [{"smiles": "COc1cc(NC(=O)CCN2CCC(OC(=O)Nc3ccccc3-c3ccccc3)CC2)c(Cl)cc1CNC[C@H](O)c1ccc(O)c2[nH]c(=O)ccc12", "note": "[compound of formula I, biphenyl-2-ylcarbamic acid 1-[2-(2-chloro-4-{[(R)-2-hydroxy-2-(8-hydroxy-2-oxo-1,2-dihydroquinolin-5-yl)ethylamino]methyl}-5-methoxyphenylcarbamoyl)ethyl]piperidin-4-yl ester]", "values": [{"measurement": "pKi", "setting": "[1]", "value": "> 8.00"}, {"measurement": "duration (PD T1/2) of brochoprotective activity", "setting": "[2]", "value": "at least 24 hours"}, {"measurement": "pEC50", "setting": "β2 adrenergic receptor", "value": "> 8.00"}]}]}
